Experimental data from US10941138B2, “Quinoline and isoquinoline derivatives for treating pain and pain related conditions” (ESTEVE PHARMACEUTICALS, S.A., priority 2016, dated 2021).

What follows are compounds tested against human α2δ-1 subunit of Cav2.2 calcium channel (Homo sapiens (Human), UniProt P54289) (assay: Binding assay to human α2δ-1 subunit of Cav2.2 calcium channel ([3H]-Gabapentin)). Settings: Table 1, human α2δ-1 enriched membranes, read-out: Ki (nM) alpha2delta Hum.
Sequence of human α2δ-1 subunit of Cav2.2 calcium channel (P54289 25-1103): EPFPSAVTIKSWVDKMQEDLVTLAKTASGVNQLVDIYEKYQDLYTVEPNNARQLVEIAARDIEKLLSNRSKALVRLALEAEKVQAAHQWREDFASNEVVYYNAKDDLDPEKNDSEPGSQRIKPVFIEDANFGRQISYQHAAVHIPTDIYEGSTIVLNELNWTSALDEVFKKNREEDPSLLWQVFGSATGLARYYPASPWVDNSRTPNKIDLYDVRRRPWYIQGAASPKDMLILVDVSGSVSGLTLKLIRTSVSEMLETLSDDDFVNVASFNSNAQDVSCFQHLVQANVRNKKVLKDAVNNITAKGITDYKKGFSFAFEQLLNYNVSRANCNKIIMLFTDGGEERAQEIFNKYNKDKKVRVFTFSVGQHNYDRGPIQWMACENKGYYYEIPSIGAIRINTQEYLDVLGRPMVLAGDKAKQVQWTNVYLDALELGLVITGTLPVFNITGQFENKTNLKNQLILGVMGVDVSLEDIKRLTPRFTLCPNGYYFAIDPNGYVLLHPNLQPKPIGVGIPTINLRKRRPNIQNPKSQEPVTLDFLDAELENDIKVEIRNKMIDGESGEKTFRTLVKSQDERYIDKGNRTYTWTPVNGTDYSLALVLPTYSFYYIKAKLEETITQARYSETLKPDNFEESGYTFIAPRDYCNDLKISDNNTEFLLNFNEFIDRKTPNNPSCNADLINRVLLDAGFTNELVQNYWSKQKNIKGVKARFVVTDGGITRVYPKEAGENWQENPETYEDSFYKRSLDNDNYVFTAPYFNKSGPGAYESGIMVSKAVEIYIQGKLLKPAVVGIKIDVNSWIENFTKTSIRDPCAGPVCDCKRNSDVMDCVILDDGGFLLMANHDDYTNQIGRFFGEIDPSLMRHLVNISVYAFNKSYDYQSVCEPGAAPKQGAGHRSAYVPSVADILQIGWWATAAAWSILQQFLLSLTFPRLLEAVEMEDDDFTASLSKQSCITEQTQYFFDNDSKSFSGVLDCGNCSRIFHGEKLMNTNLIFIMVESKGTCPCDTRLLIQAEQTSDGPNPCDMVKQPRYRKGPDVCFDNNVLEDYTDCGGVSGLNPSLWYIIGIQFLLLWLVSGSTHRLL
Method: Binding Assay to Human α2δ-1 Subunit of Cav2.2 Calcium Channel.
Human α2δ-1 enriched membranes (2.5 μg) were incubated with 15 nM of radiolabeled [3H]-Gabapentin in assay buffer containing Hepes-KOH 10 mM, pH 7.4.
NSB (non specific binding) was measured by adding 10 μM pregabalin. The binding of the test compound was measured at five different concentrations. After 60 min incubation at 27° C., binding reaction was terminated by filtering through Multiscreen GF/C (Millipore) presoaked in 0.5% polyethyleneimine in Vacuum Manifold Station, followed by 3 washes with ice-cold filtration buffer containing 50 mM Tris-HCl, pH 7.4. Filter plates were dried at 60° C. for 1 h and 30 μl of scintillation cocktail were added to each well before radioactivity reading.
Readings were performed in a Trilux 1450 Microbeta radioactive counter (Perkin Elmer).
A Ki of no less than 3000 nM was found for `CNCCC(Oc1cccc2cnccc12)c1cncc(Cl)c1` (stereo not shown) [Example 26, 3-(5-chloropyridin-3-yl)-3-(isoquinolin-5-yloxy)-N-methylpropan-1-amine] in this work. A Ki of no less than 3000 nM was found for `CNCCC(Oc1cccc2ncccc12)c1cc(C(F)(F)F)ccn1` (stereo not shown) [Example 31, N-methyl-3-(quinolin-5-yloxy)-3-(4-(trifluoromethyl)pyridin-2-yl)propan-1-amine] in this work. A Ki of no less than 3000 nM was found for `CNCCC(Oc1cccc2ccncc12)c1cccc(C(F)(F)F)n1` (stereo not shown) [Example 24, 3-(isoquinolin-8-yloxy)-N-methyl-3-(6-(trifluoromethyl)pyridin-2-yl)propan-1-amine] in this work. A Ki of no less than 3000 nM was found for `CNCCC(Oc1cccc2ccncc12)c1ccncc1` (stereo not shown) [Example 27, 3-(isoquinolin-8-yloxy)-N-methyl-3-(pyridin-4-yl)propan-1-amine] in this work. A Ki of no less than 3000 nM was found for `CNCCC(Oc1cccc2ccncc12)c1ccc(C(F)(F)F)nc1` (stereo not shown) [Example 39, 3-(isoquinolin-8-yloxy)-N-methyl-3-(6-(trifluoromethyl)pyridin-3-yl)propan-1-amine] in this work. A Ki of no less than 3000 nM was found for `CN(C)CCC(Oc1nccc2ccccc12)c1cccs1` (stereo not shown) [Example 8, 3-(isoquinolin-1-yloxy)-N,N-dimethyl-3-(thiophen-2-yl)propan-1-amine] in this work. A Ki of 500 to 3000 nM was found for `CNCC[C@H](Oc1ccc2cnccc2c1)c1cccs1` [Example 55, (S)-3-(isoquinolin-6-yloxy)-N-methyl-3-(thiophen-2-yl)propan-1-amine] in this work. A Ki of no less than 3000 nM was found for `CNCCC(Oc1cccc2cnccc12)c1ccccn1` (stereo not shown) [Example 23, 3-(isoquinolin-5-yloxy)-N-methyl-3-(pyridin-2-yl)propan-1-amine] in this work. A Ki of 500 to 3000 nM was found for `CNCCC(Oc1cccc2ncccc12)c1ncc(C)s1` (stereo not shown) [Example 34, N-methyl-3-(5-methylthiazol-2-yl)-3-(quinolin-5-yloxy)propan-1-amine] in this work. A Ki of no less than 3000 nM was found for `CNCCC(Oc1cccc2ncccc12)C1CCOCC1` (stereo not shown) [Example 20, N-methyl-3-(quinolin-5-yloxy)-3-(tetrahydro-2H-pyran-4-yl)propan-1-amine] in this work. A Ki of 500 to 3000 nM was found for `CNCC[C@H](Oc1cccc2ccncc12)c1ccc(F)s1` [Example 80, (S)-3-(5-Fluorothiophen-2-yl)-3-(isoquinolin-8-yloxy)-N-methylpropan-1-amine] in this work. A Ki of no less than 3000 nM was found for `CNCCC(Oc1cccc2cnccc12)c1cccc(C(F)(F)F)n1` (stereo not shown) [Example 37, 3-(isoquinolin-5-yloxy)-N-methyl-3-(6-(trifluoromethyl)pyridin-2-yl)propan-1-amine] in this work. A Ki of 500 to 3000 nM was found for `CNCC[C@@H](Oc1cccc2ncccc12)c1nccs1` [Example 77, (R)—N-methyl-3-(quinolin-5-yloxy)-3-(thiazol-2-yl)propan-1-amine] in this work. A Ki of no less than 3000 nM was found for `c1ccc(CNCCC(Oc2cccc3cnccc23)c2cccs2)cc1` (stereo not shown) [Example 6, N-benzyl-3-(isoquinolin-5-yloxy)-3-(thiophen-2-yl)propan-1-amine] in this work. A Ki of no less than 3000 nM was found for `CNCCC(Oc1cccc2ccncc12)c1cccnc1` (stereo not shown) [Example 21, 3-(isoquinolin-8-yloxy)-N-methyl-3-(pyridin-3-yl)propan-1-amine] in this work. A Ki of 100 to 500 nM was found for `CNCC[C@@H](Oc1cccc2ncccc12)c1ccsc1` [Example 63, (R)-N-methyl-3-(quinolin-5-yloxy)-3-(thiophen-3-yl)propan-1-amine] in this work. A Ki of 100 to 500 nM was found for `CNCC[C@H](Oc1cccc2ncccc12)c1nccs1` [Example 76, (S)—N-Methyl-3-(quinolin-5-yloxy)-3-(thiazol-2-yl)propan-1-amine] in this work. A Ki of 100 to 500 nM was found for `CNCCC(Oc1cccc2ncccc12)c1ccsc1` (stereo not shown) [Example 57, N-methyl-3-(quinolin-5-yloxy)-3-(thiophen-3-yl)propan-1-amine] in this work. A Ki of no less than 3000 nM was found for `CNCCC(Oc1cccc2ncccc12)c1ccc(C(F)(F)F)nc1` (stereo not shown) [Example 40, N-methyl-3-(quinolin-5-yloxy)-3-(6-(trifluoromethyl)pyridin-3-yl)propan-1-amine] in this work. A Ki of less than 100 nM was found for `CCNCC[C@@H](Oc1cccc2c(C#N)nccc12)c1cccs1` [Example 89, (R)-5-(3-(ethylamino)-1-(thiophen-2-yl)propoxy)isoquinoline-1-carbonitrile] in this work. A Ki of no less than 3000 nM was found for `CNCCC(Oc1cccc2ncccc12)c1cccc(C(F)(F)F)n1` (stereo not shown) [Example 38, N-methyl-3-(quinolin-5-yloxy)-3-(6-(trifluoromethyl)pyridin-2-yl)propan-1-amine] in this work. A Ki of no less than 3000 nM was found for `CNCC[C@H](Oc1cccc2ccnc(C)c12)c1cccs1` [Example 64, (S)-N-methyl-3-((1-methylisoquinolin-8-yl)oxy)-3-(thiophen-2-yl)propan-1-amine] in this work. A Ki of less than 100 nM was found for `CNCCC(Oc1cccc2c(C(N)=O)nccc12)c1cccs1` (stereo not shown) [Example 16, 5-(3-(methylamino)-1-(thiophen-2-yl)propoxy)isoquinoline-1-carboxamide] in this work. A Ki of no less than 3000 nM was found for `CNCCC(Oc1cccc2ccncc12)c1nccs1` (stereo not shown) [Example 70, 3-(Isoquinolin-8-yloxy)-N-methyl-3-(thiazol-2-yl)propan-1-amine] in this work. A Ki of no less than 3000 nM was found for `CNCCC(Oc1cccc2cnccc12)c1cc(C(F)(F)F)ccn1` (stereo not shown) [Example 29, 3-(isoquinolin-5-yloxy)-N-methyl-3-(4-(trifluoromethyl)pyridin-2-yl)propan-1-amine] in this work. A Ki of less than 100 nM was found for `CNCC[C@@H](Oc1cccc2c(C)nccc12)c1cccs1` [Example 59, (R)-N-methyl-3-((1-methylisoquinolin-5-yl)oxy)-3-(thiophen-2-yl)propan-1-amine] in this work. A Ki of less than 100 nM was found for `CNCC[C@@H](Oc1cccc2nc(C)cc(C)c12)c1cccs1` [Example 66, (R)-3-((2,4-dimethylquinolin-5-yl)oxy)-N-methyl-3-(thiophen-2-yl)propan-1-amine] in this work. A Ki of no less than 3000 nM was found for `CNCCC(Oc1cccc2ccncc12)c1ccccn1` (stereo not shown) [Example 22, 3-(isoquinolin-8-yloxy)-N-methyl-3-(pyridin-2-yl)propan-1-amine] in this work. A Ki of no less than 3000 nM was found for `CNCCC(Oc1cccc2ncccc12)c1ccncc1` (stereo not shown) [Example 35, N-methyl-3-(pyridin-4-yl)-3-(quinolin-5-yloxy)propan-1-amine] in this work. A Ki of no less than 3000 nM was found for `CNCCC(Oc1ccnc2ccccc12)c1cccs1` (stereo not shown) [Example 4, N-methyl-3-(quinolin-4-yloxy)-3-(thiophen-2-yl)propan-1-amine] in this work. A Ki of 100 to 500 nM was found for `CNCCC(Oc1cccc2ncccc12)c1nc(C)cs1` (stereo not shown) [Example 32, N-methyl-3-(4-methylthiazol-2-yl)-3-(quinolin-5-yloxy)propan-1-amine] in this work. A Ki of no less than 3000 nM was found for `CNCC[C@@H](Oc1ccc2ncccc2c1)c1cccs1` [Example 7, (R)—N-Methyl-3-(quinolin-6-yloxy)-3-(thiophen-2-yl)propan-1-amine] in this work. A Ki of 100 to 500 nM was found for `CNCCC(Oc1cccc2c(C#N)nccc12)c1cccs1` (stereo not shown) [Example 75, 5-(3-(Methylamino)-1-(thiophen-2-yl)propoxy)isoquinoline-1-carbonitrile] in this work. A Ki of no less than 3000 nM was found for `CCNCC[C@H](Oc1cccc2cnccc12)c1cccs1` [Example 92, (S)-N-ethyl-3-(isoquinolin-5-yloxy)-3-(thiophen-2-yl)propan-1-amine] in this work. A Ki of 500 to 3000 nM was found for `CNCCC(Oc1ccc2cccnc2c1)c1cccs1` (stereo not shown) [Example 73, N-methyl-3-(quinolin-7-yloxy)-3-(thiophen-2-yl)propan-1-amine] in this work. A Ki of no less than 3000 nM was found for `CNCCC(Oc1cccc2ncccc12)c1cccnc1` (stereo not shown) [Example 36, N-methyl-3-(pyridin-3-yl)-3-(quinolin-5-yloxy)propan-1-amine] in this work. A Ki of no less than 3000 nM was found for `CNCCC(Oc1cccc2ncccc12)c1ccccn1` (stereo not shown) [Example 33, N-methyl-3-(pyridin-2-yl)-3-(quinolin-5-yloxy)propan-1-amine] in this work. A Ki of no less than 3000 nM was found for `CNCC[C@H](Oc1cnc2ccccc2c1)c1cccs1` [Example 95, (S)-N-methyl-3-(quinolin-3-yloxy)-3-(thiophen-2-yl)propan-1-amine] in this work. A Ki of 100 to 500 nM was found for `CCNCC[C@H](Oc1cccc2c(C#N)nccc12)c1cccs1` [Example 91, (S)-5-(3-(ethylamino)-1-(thiophen-2-yl)propoxy)isoquinoline-1-carbonitrile] in this work. A Ki of 100 to 500 nM was found for `CCNCC[C@H](Oc1cccc2ncccc12)c1cccs1` [Example 90, (S)-N-ethyl-3-(quinolin-5-yloxy)-3-(thiophen-2-yl)propan-1-amine] in this work. A Ki of 100 to 500 nM was found for `CCNCC[C@@H](Oc1cccc2cnccc12)c1cccs1` [Example 88, (R)-N-ethyl-3-(isoquinolin-5-yloxy)-3-(thiophen-2-yl)propan-1-amine] in this work. A Ki of 500 to 3000 nM was found for `CN(C)CCC(Oc1cccc2cnccc12)c1cccs1` (stereo not shown) [Example 43, 3-(isoquinolin-5-yloxy)-N,N-dimethyl-3-(thiophen-2-yl)propan-1-amine] in this work. A Ki of no less than 3000 nM was found for `CNCCC(Oc1cccc2cnccc12)c1ccc(C(F)(F)F)nc1` (stereo not shown) [Example 28, 3-(isoquinolin-5-yloxy)-N-methyl-3-(6-(trifluoromethyl)pyridin-3-yl)propan-1-amine] in this work. A Ki of less than 100 nM was found for `CCNCCC(Oc1cccc2cnccc12)c1cccs1` (stereo not shown) [Example 5, N-ethyl-3-(isoquinolin-5-yloxy)-3-(thiophen-2-yl)propan-1-amine] in this work. A Ki of no less than 3000 nM was found for `CNCCC(Oc1cccc2ccncc12)C1CCOCC1` (stereo not shown) [Example 19, 3-(isoquinolin-8-yloxy)-N-methyl-3-(tetrahydro-2H-pyran-4-yl)propan-1-amine] in this work. A Ki of 100 to 500 nM was found for `CCNCC[C@@H](Oc1cccc2ncccc12)c1cccs1` [Example 93, (R)-N-ethyl-3-(quinolin-5-yloxy)-3-(thiophen-2-yl)propan-1-amine] in this work.
